Test [1] concerns NCI-H358 cells (express KRas G12C), Phospho-ERK. In words: Cellular inhibition of KRas G12C: Phospho-ERK in NCI-H358 cells. The note with it: pERK(Thr202/Tyr204) normalized with GAPDH, NCI-H358 cells, 3 hours, read-out: IC50. It is filed as cell-based. In outline:
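IC50 derived by 4-parameter fit of GAPDH-normalized pERK(Thr202/Tyr204) signal, as percent of DMSO control. Signal came from in-cell immunodetection with infrared secondaries after 3 h compound exposure of KRas G12C NCI-H358 cells at 0.5% DMSO.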

Test [2] concerns the target KRas G12C (Homo sapiens, UniProt P01116, C118S/C51S/C80L/G12C). In words: KRas G12C Modification Assay (LCMS detection of covalent adduct). As to conditions: normalized percent of control; tested at 5 μM concentration for 3 hours. It is filed as binding. In outline:
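Covalent modification was read by reverse-phase LC/MS of intact protein after compound exposure, each reaction stopped at its time point with 25 mM acetic acid. Unmodified-protein signal, taken as percent of total, was normalised to untreated protein and reported as POC.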

Read-outs that look alike come from different tables or passages of the source.

The term IC50 denotes the concentration that inhibits the measured activity by half.

On to `C=CC(=O)N1CCN(c2nc(OC[C@@H]3[C@H](F)CCN3C)nc3c2CCN(c2cccc4ccccc24)C3)C[C@@H]1CC#N` [Example 438, 2-((S)-1-acryloyl-4-(2-(((2R,3R)-3-fluoro-1-methylpyrrolidin-2-yl)methoxy)-7-(naphthalen-1-yl)-5,6,7,8-tetrahydropyrido[3,4-d]pyrimidin-4-yl)piperazin-2-yl)acetonitrile], for which the IC50 in test [1] (Homo sapiens, NCI-H358, 3 h) fell in the range of 0.1 to 1000 nM. Further, the POC result in test [2] was “C (“C”>50% POC)”.
In the case of `C=CC(=O)N1CCN(c2nc(OC[C@@H]3CCCN3C)nc3c2CCN(c2cccc4cccn24)C3)C[C@@H]1CC#N` [Example 440, 2-((S)-1-acryloyl-4-(7-(indolizin-5-yl)-2-(((S)-1-methylpyrrolidin-2-yl)methoxy)-5,6,7,8-tetrahydropyrido[3,4-d]pyrimidin-4-yl)piperazin-2-yl)acetonitrile], the IC50 in test [1] (Homo sapiens, NCI-H358, 3 h) was 0.1 to 1000 nM. The POC entry in test [2] was “C (“C”>50% POC)”.
Regarding `C=CC(=O)N1CCN(c2nc(OC[C@@H]3CN(C)CCO3)nc3c2CCN(c2cccc4ccccc24)C3)CC1CC#N` (stereo partly drawn) [Example 442, 2-(1-Acryloyl-4-(2-(((S)-4-methylmorpholin-2-yl)methoxy)-7-(naphthalen-1-yl)-5,6,7,8-tetrahydropyrido[3,4-d]pyrimidin-4-yl)piperazin-2-yl)acetonitrile], the IC50 in test [1] was 0.1 to 1000 nM. Also, the POC result in test [2] was “C (“C”>50% POC)”.
The corresponding values for `C=CC(=O)N1CCN(c2nc(OC[C@@H]3COCCN3C)nc3c2CCN(c2cccc4ccccc24)C3)CC1CC#N` (stereo partly drawn) [Example 443, 2-(1-Acryloyl-4-(2-(((S)-4-methylmorpholin-3-yl)methoxy)-7-(naphthalen-1-yl)-5,6,7,8-tetrahydropyrido[3,4-d]pyrimidin-4-yl)piperazin-2-yl)acetonitrile] are 0.1 to 1000 nM and “C (“C”>50% POC)”.
Take `C=CC(=O)N1CCN(c2nc(OC[C@H]3COCCN3C)nc3c2CCN(c2cccc4ccccc24)C3)CC1CC#N` (stereo partly drawn) [Example 444, 2-(1-Acryloyl-4-(2-(((R)-4-methylmorpholin-3-yl)methoxy)-7-(naphthalen-1-yl)-5,6,7,8-tetrahydropyrido[3,4-d]pyrimidin-4-yl)piperazin-2-yl)acetonitrile]: the 50% inhibitory concentration (IC50) in test [1] is over 1000 nM. Also, the POC entry in test [2] was “C (“C”>50% POC)”.
Take `C=CC(=O)N1CCN(c2nc(OC[C@@H]3CC(F)(F)CN3C)nc3c2CCN(c2cccc4ccccc24)C3)C[C@@H]1CC#N` [Example 445, 2-((S)-1-Acryloyl-4-(2-(((S)-4,4-difluoro-1-methylpyrrolidin-2-yl)methoxy)-7-(naphthalen-1-yl)-5,6,7,8-tetrahydropyrido[3,4-d]pyrimidin-4-yl)piperazin-2-yl)acetonitrile]: in test [1] (Homo sapiens, NCI-H358, 3 h), the IC50 is 0.1 to 1000 nM. Also, the POC result in test [2] is on record as “C (“C”>50% POC)”.
Turning to `C=CC(=O)N1CCN(c2nc(OC[C@H]3CN(C)C4(CC4)CO3)nc3c2CCN(c2cccc4ccccc24)C3)C[C@@H]1CC#N` [Example 446, 2-((S)-1-Acryloyl-4-(2-(((R)-4-methyl-7-oxa-4-azaspiro[2.5]octan-6-yl)methoxy)-7-(naphthalen-1-yl)-5,6,7,8-tetrahydropyrido[3,4-d]pyrimidin-4-yl)piperazin-2-yl)acetonitrile], the IC50 in test [1] (Homo sapiens, NCI-H358, 3 h) fell in the range of 0.1 to 1000 nM. The POC entry in test [2] is on record as “C (“C”>50% POC)”.
Turning to `C=CC(=O)N1CCN(c2nc(OC[C@@H]3CCCN3C)nc3c2CCN(c2ccccc2C(F)F)C3)CC1CC#N` (stereo partly drawn) [Example 447, 2-(1-Acryloyl-4-(7-(2-(difluoromethyl)phenyl)-2-(((S)-1-methylpyrrolidin-2-yl)methoxy)-5,6,7,8-tetrahydropyrido[3,4-d]pyrimidin-4-yl)piperazin-2-yl)acetonitrile], in test [1] (Homo sapiens, NCI-H358, 3 h), the half-maximal inhibitory concentration (IC50) lay in the range of 0.1 to 1000 nM. The POC entry in test [2] is reported as “C (“C”>50% POC)”.
Regarding `C=CC(=O)N1CCN(c2nc(OC[C@H]3CN(C)CCO3)nc3c2CCN(c2cccc4ccccc24)C3)C[C@@H]1CC#N` [Example 448, 2-((S)-1-Acryloyl-4-(2-(((R)-4-methylmorpholin-2-yl)methoxy)-7-(naphthalen-1-yl)-5,6,7,8-tetrahydropyrido[3,4-d]pyrimidin-4-yl)piperazin-2-yl)acetonitrile], in test [1] (Homo sapiens, NCI-H358, 3 h), the half-inhibitory concentration (IC50) is 0.1 to 1000 nM. In addition, the POC entry in test [2] was “C (“C”>50% POC)”.
Regarding `C=CC(=O)N1CCN(c2nc(OC[C@H]3CN(C)C(C)(C)CO3)nc3c2CCN(c2cccc4ccccc24)C3)C[C@@H]1CC#N` [Example 450, 2-((S)-1-Acryloyl-4-(7-(naphthalen-1-yl)-2-(((R)-4,5,5-trimethylmorpholin-2-yl)methoxy)-5,6,7,8-tetrahydropyrido[3,4-d]pyrimidin-4-yl)piperazin-2-yl)acetonitrile], the 50% inhibitory concentration (IC50) in test [1] (Homo sapiens, NCI-H358, 3 h) lay within 0.1 to 1000 nM. Further, the POC result in test [2] is listed as “C (“C”>50% POC)”.
Regarding `C=CC(=O)N1CCN(c2nc(OC[C@@H]3CCCN3C)nc3c2CCN(c2c(C)c(C)cc4[nH]ncc24)C3)CC1` [Example 451, 1-[4-[7-(5,6-dimethyl-1H-indazol-4-yl)-2-[[(2S)-1-methylpyrrolidin-2-yl]methoxy]-6,8-dihydro-5H-pyrido[3,4-d]pyrimidin-4-yl]piperazin-1-yl]prop-2-en-1-one], the IC50 in test [1] (Homo sapiens, NCI-H358, 3 h) was in the range of 0.1 to 1000 nM. Moreover, the POC result in test [2] is given as “C (“C”>50% POC)”.
For `C=CC(=O)N1CCN(c2nc(OCCN3CCC(F)(F)CC3)nc3c2CCN(c2cccc4cccc(Cl)c24)C3)C[C@@H]1CC#N` [Example 452, 2-[(2S)-4-[7-(8-chloro-1-naphthyl)-2-[2-(4,4-difluoro-1-piperidyl)ethoxy]-6,8-dihydro-5H-pyrido[3,4-d]pyrimidin-4-yl]-1-prop-2-enoyl-piperazin-2-yl]acetonitrile], in test [1] (Homo sapiens, NCI-H358, 3 h), the half-maximal inhibitory concentration (IC50) was 0.1 to 1000 nM. For the same compound, the POC entry in test [2] is “C (“C”>50% POC)”.
Consider `C=CC(=O)N1CCN(c2nc(OCCN3CCCC(F)(F)C3)nc3c2CCN(c2cccc4cccc(Cl)c24)C3)C[C@@H]1CC#N` [Example 453, 2-[(2S)-4-[7-(8-chloro-1-naphthyl)-2-[2-(3,3-difluoro-1-piperidyl)ethoxy]-6,8-dihydro-5H-pyrido[3,4-d]pyrimidin-4-yl]-1-prop-2-enoyl-piperazin-2-yl]acetonitrile], for which, in test [1] (Homo sapiens, NCI-H358, 3 h), the IC50 was 0.1 to 1000 nM. In test [2], the POC result is listed as “C (“C”>50% POC)”.
As to `C=CC(=O)N1CCN(c2nc(OC[C@@H]3CCCN3C)nc3c2CCN(c2c(C)c(C)cc4[nH]ccc24)C3)CC1` [Example 454, 1-[4-[7-(5,6-dimethyl-1H-indol-4-yl)-2-[[(2S)-1-methylpyrrolidin-2-yl]methoxy]-6,8-dihydro-5H-pyrido[3,4-d]pyrimidin-4-yl]piperazin-1-yl]prop-2-en-1-one], the IC50 in test [1] (Homo sapiens, NCI-H358, 3 h) is 0.1 to 1000 nM. The POC entry in test [2] was “C (“C”>50% POC)”.
For `CC#CC(=O)N1CCN(c2nc(OC[C@@H]3CCCN3C)nc3c2CCN(c2cccc4cccc(C)c24)C3)C[C@@H]1CC#N` [Example 455, 2-((S)-1-(but-2-ynoyl)-4-(7-(8-methylnaphthalen-1-yl)-2-(((S)-1-methylpyrrolidin-2-yl)methoxy)-5,6,7,8-tetrahydropyrido[3,4-d]pyrimidin-4-yl)piperazin-2-yl)acetonitrile], the half-inhibitory concentration (IC50) in test [1] (Homo sapiens, NCI-H358, 3 h) is 0.1 to 1000 nM. The POC result in test [2] is recorded as “C (“C”>50% POC)”.

Values taken from patent US10125134B2 (Mirati Therapeutics, Inc., priority 2016, dated 2018).
